Measured values reported in patent publication US7560468B2, “Substituted 1,4,8-triazaspiro[4,5]decan-2-one compounds” (Gruenenthal GmbH, priority 2004, dated 2009).
pKi: −log10 of the molar value.

Experiments:
[1] = biological target: human CB2 receptor (Homo sapiens, UniProt P34972); assay: Affinity to the cannabinoid receptor CB2, displacement of [3H]-CP 55,940; details: for Inhibition CB2 10 μM, % inhibition: membranes of HEK 293EBNA cells with human CB2 receptor; for pKi: CB2, Cheng Prusoff correction of IC50; for inhibition at 10 µM: read-out: Inhibition CB2 10 μM, % inhibition
Method: The radioligand used was tritium-labeled 5-(1,1-dimethylheptyl)-2-(5-hydroxypropyl)cyclohexyl)-1-alpha,2-beta,5-alpha)-phenol (^[3]H—CP 55,940 with 103.4 of Ci/mmol, 1 m Ci/mL). Determination was carried out in a test buffer comprising 50 mM of Tris-HCl, 2.5 mm of EDTA, 5 mm of MgCl2 and 1.0 mg/mL of fatty acid-free BSA. The test substances were in each case dissolved in DMSO.
The affinity of the compounds of the invention to the CB2 receptor is determined by their ability to displace ^[3]H—CP from 55,940 of CB2 receptors in membranes of HEK 293 EBNA cells. For this purpose 8 μg of membranes (20 mL of a solution of membranes in a concentration of 400 g/ml) are incubated in wells of a microtiter plate with a 0.33 nM of solution of [3]H-CP 55,949 (120 of Ci/mmol) in a total volume of test buffer of 200 μL for 90 minutes at 30° C.
Subsequently, either the test substances or WIN 55,212-2 for determination the non-specific binding are placed, dissolved in each case in dimethyl sulphoxide, in the wells so that in each case a concentration of the relevant substances of 10 μM is obtained.
Incubation is continued for a further 40 minutes at 30° C. dc. […] The filters are washed nine times with 0.5 mL of ice-cold washing buffer (50 nM of Tris-HCl, 5 mM of MgCl2, 2.5 mm of EDTA, 2% of BSA, pH 7.4), air-dried, placed in scintillation liquid, and the radioactivity is determined with the aid of a scintillation counter.
The percentage displacement of the radio-active ligand ^[3]H—CP 55,940 from its binding to the CB2 receptor is indicated as percentage inhibition of the specific binding. In order to determine Ki the IC50 inhibition concentrations are calculated based on of the percentage displacement achieved by the compounds of the general formula I to be tested at various concentrations causing a 50 percent displacement of the radioactive ligands.

[2] = biological target: T1, 5-HT transporter (Rattus norvegicus, UniProt P31652); assay: Inhibition of 5-HT uptake in synaptosomes; type: biochemical; details: for inhibition at 1 µM: read-out: Uptake_5-HT, rat, 1 μM, % inhibition
T1 construct: from tissue; host or cells: rat brain synaptosomes (marrow/medulla and pons), P2 fraction

[3] = system: batrachotoxin (BTX) binding site of the sodium channel; assay: Affinity to the batrachotoxin (BTX) binding site of the sodium channel; details: rat cerebrocortex synaptosomes, [3H]-batrachotoxinin A20 α-benzoate 10 nM; test concentration not given
[4] = system: NA transporter; assay: Inhibition of noradrenalin uptake in synaptosomes; type: biochemical

T1 sequence (P31652 whole entry): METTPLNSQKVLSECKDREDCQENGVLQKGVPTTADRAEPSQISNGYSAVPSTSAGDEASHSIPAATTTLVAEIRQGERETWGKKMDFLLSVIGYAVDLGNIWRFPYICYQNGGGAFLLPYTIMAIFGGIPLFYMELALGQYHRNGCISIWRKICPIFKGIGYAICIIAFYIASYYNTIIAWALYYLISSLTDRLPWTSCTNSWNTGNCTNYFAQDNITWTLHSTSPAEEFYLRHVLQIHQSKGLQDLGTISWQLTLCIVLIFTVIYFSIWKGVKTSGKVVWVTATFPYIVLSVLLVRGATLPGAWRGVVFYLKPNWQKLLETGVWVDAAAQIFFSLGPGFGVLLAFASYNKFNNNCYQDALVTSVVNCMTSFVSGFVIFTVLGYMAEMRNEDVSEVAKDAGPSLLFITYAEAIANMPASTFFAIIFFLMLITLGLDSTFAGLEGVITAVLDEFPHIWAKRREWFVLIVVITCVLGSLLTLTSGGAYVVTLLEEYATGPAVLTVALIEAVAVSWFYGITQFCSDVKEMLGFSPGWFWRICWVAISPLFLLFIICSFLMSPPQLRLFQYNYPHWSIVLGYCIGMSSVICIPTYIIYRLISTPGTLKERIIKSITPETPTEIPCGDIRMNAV
Sequence of human CB2 receptor (P34972 whole entry): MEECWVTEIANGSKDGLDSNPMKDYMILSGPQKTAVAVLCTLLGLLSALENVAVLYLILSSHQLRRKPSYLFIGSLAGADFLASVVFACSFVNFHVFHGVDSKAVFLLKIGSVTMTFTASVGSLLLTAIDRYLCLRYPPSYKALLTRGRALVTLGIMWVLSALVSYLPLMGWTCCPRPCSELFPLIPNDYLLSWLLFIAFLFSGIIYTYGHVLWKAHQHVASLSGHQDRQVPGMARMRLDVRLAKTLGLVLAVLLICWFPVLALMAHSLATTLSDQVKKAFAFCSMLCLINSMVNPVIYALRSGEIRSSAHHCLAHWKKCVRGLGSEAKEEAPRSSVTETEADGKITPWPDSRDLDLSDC

Row | Compound | Inhibition CB2 10 μM, % inhibition [1] [%] | pKi [1] | Uptake_5-HT, rat, 1 μM, % inhibition [2] [%] | BTX Inhibition [3] | inhibition at 1 µM [2] [%] | inhibition at 10 µM [1] [%] | Uptake (NA), rat, 10 μM, % inhibition [4] [%]
1 | 1,3-Dibenzyl-8-(4-chlorobenzolsulfonyl)-1,4,8-triazaspiro[4,5]decan-2-one [Example 248] | 87 | 5.92 |  |  |  |  | 
2 | 1,3-Dibenzyl-8-(4-methoxy-benzolsulfonyl)-1,4,8-triazaspiro[4,5]decan-2-one [Example 249] | 80 | 5.46 |  |  |  |  | 
3 | 8-Benzolsulfonyl-1,3-dibenzyl-1,4,8-triazaspiro[4,5]decan-2-one [Example 247] | 72 | 5.40 |  |  |  |  | 
4 | CC(C)C1NC2(CCN(S(=O)(=O)c3ccccc3Cl)CC2)NC1=O (stereo not shown) [Example 8, 8-(2-Chlorobenzolsulfonyl)-3-isopropyl-1,4,8-triazaspiro[4,5]decan-2-one] | 41 |  | 55 |  |  |  | 
5 | CSCCC1NC2(CCN(S(=O)(=O)c3ccc(F)cc3F)CC2)N(Cc2cc(C)cc(C)c2)C1=O (stereo not shown) [Example 42, 8-(2,4-Difluorobenzolsulfonyl)-1-(3,5-dimethylbenzyl)-3-(2-methylsulfanylethyl)-1,4,8-triazaspiro[4,5]decan-2-one] | 48 |  |  | 56 |  |  | 
6 | CCCCN1C(=O)C(C(C)C)NC12CCN(C(=S)NC(C)C)CC2 (stereo not shown) [Example 107, 1-Butyl-3-isopropyl-2-oxo-1,4,8-triazaspiro[4,5]decan-8-thiocarboxylic acid isopropylamide] |  |  |  |  | 28 | 56 | 
7 | CCCCN1C(=O)C(C(C)C)NC12CCN(C(=S)NCc1ccc(Cl)cc1)CC2 (stereo not shown) [Example 150, 1-Butyl-3-isopropyl-2-oxo-1,4,8-triazaspiro[4,5]decan-8-thiocarboxylic acid 4-chlorobenzylamide] |  |  |  | 73 | 51 |  | 30
8 | CSCCC1NC2(CCN(C(=S)Nc3ccccc3C)CC2)N(Cc2ccc3ccccc3c2)C1=O (stereo not shown) [Example 151, 3-(2-Methylsulfanylethyl)-1-naphthalin-2-ylmethyl-2-oxo-1,4,8-triazaspiro[4,5]decan-8-thiocarboxylic acid o-tolylamide] |  |  |  | 84 | 64 |  | 42
9 | CC(C)C1NC2(CCN(C(=S)Nc3c(F)c(F)c(F)c(F)c3F)CC2)N(Cc2ccccc2)C1=O (stereo not shown) [Example 154, 1-Benzyl-3-isopropyl-2-oxo-1,4,8-triazaspiro[4,5]decan-8-thiocarboxylic acid pentafluorobenzolamide-amide] |  |  | 34 | 61 |  |  | 43
10 | CCCCN1C(=O)C(CCSC)NC12CCN(C(=S)Nc1ccc(OCC)cc1)CC2 (stereo not shown) [Example 158, 1-Butyl-3-(2-methylsulfanylethyl)-2-oxo-1,4,8-triazaspiro[4,5]decan-8-thiocarboxylic acid (4-ethoxy-benzol)amide] |  |  | 33 | 35 |  |  | 41
11 | CCOC(=O)CN1C(=O)C(Cc2ccccc2)NC12CCN(C(=S)NCC1CCCCC1)CC2 (stereo not shown) [Example 159, Ethyl[3-benzyl-8-(cyclohexylmethylthiocarbamoyl)-2-oxo-1,4,8-triazaspiro[4,5]dec-1-yl]-acetate] |  |  |  | 84 | 33 |  | 36
12 | CSCCC1NC2(CCN(C(=S)Nc3cccc(C(C)=O)c3)CC2)N(Cc2ccc3ccccc3c2)C1=O (stereo not shown) [Example 165, 3-(2-Methylsulfanylethyl)-1-naphthalin-2-ylmethyl-2-oxo-1,4,8-triazaspiro[4,5]decan-8-thiocarboxylic acid (3-acetylbenzol)amide] |  |  | 42 | 64 |  |  | 48
13 | Cc1cccc(NC(=S)N2CCC3(CC2)NC(Cc2ccccc2)C(=O)N3Cc2ccccc2F)c1 (stereo not shown) [Example 166, 3-Benzyl-1-(2-fluorobenzyl)-2-oxo-1,4,8-triazaspiro[4,5]decan-8-thiocarboxylic acid m-tolylamide] |  |  |  | 85 | 64 |  | 39
14 | CCOC(=O)NC(=S)N1CCC2(CC1)NC(Cc1ccccc1)C(=O)N2Cc1ccccc1F (stereo not shown) [Example 174, Ethyl[3-benzyl-1-(2-fluorobenzyl)-2-oxo-1,4,8-triazaspiro[4,5]decan-8-carbothioyl]-carbamate] |  |  |  | 38 | 31 |  | 39
15 | CCCCN1C(=O)C(CCSC)NC12CCN(C(=S)Nc1ccc(F)cc1)CC2 (stereo not shown) [Example 189, 1-Butyl-3-(2-methylsulfanylethyl)-2-oxo-1,4,8-triazaspiro[4,5]decan-8-thiocarboxylic acid (4-fluorobenzol)amide] |  |  | 66 | 41 |  |  | 30
16 | CSCCC1NC2(CCN(C(=O)Nc3cccc(C#N)c3)CC2)N(Cc2ccccc2)C1=O (stereo not shown) [Example 208, 1-Benzyl-3-(2-methylsulfanylethyl)-2-oxo-1,4,8-triazaspiro[4,5]decan-8-carboxylic acid (3-cyanobenzol)amide] |  |  | 45 | 41 |  |  | 49
17 | CCCCN1C(=O)C(CCSC)NC12CCN(C(=O)Nc1cc(OC)c(OC)c(OC)c1)CC2 (stereo not shown) [Example 210, 1-Butyl-3-(2-methylsulfanylethyl)-2-oxo-1,4,8-triazaspiro[4,5]decan-8-carboxylic acid (3,4,5-trimethoxy-benzol)amide] |  |  | 32 | 44 |  |  | 36
18 | CSCCC1NC2(CCN(C(=O)Nc3ccc(Cl)c(C(F)(F)F)c3)CC2)N(Cc2ccccc2)C1=O (stereo not shown) [Example 211, 1-Benzyl-3-(2-methylsulfanylethyl)-2-oxo-1,4,8-triazaspiro[4,5]decan-8-carboxylic acid (4-chloro-3-trifluoromethylbenzol)amide] |  |  | 45 | 85 |  |  | 40
19 | CCOc1ccc(NC(=O)N2CCC3(CC2)NC(CCSC)C(=O)N3Cc2ccccc2)cc1 (stereo not shown) [Example 213, 1-Benzyl-3-(2-methylsulfanylethyl)-2-oxo-1,4,8-triazaspiro[4,5]decan-8-carboxylic acid (4-ethoxy-benzol)amide] |  |  | 39 | 41 |  |  | 37
20 | CSCCC1NC2(CCN(C(=O)Nc3cccc(C(C)=O)c3)CC2)N(Cc2ccccc2)C1=O (stereo not shown) [Example 214, 1-Benzyl-3-(2-methylsulfanylethyl)-2-oxo-1,4,8-triazaspiro[4,5]decan-8-carboxylic acid (3-acetylbenzol)amide] |  |  | 51 | 40 |  |  | 36
21 | CCCCN1C(=O)C(C(C)C)NC12CCN(C(=O)Nc1cccc(C(=O)OCC)c1)CC2 (stereo not shown) [Example 215, Ethyl 3-[(1-butyl-3-isopropyl-2-oxo-1,4,8-triazaspiro[4,5]decan-8-carbonyl)amino]-benzoate] |  |  |  | 51 | 29 |  | 33
22 | CCCCN1C(=O)C(CCSC)NC12CCN(C(=O)NCc1ccc(Cl)c(Cl)c1)CC2 (stereo not shown) [Example 219, 1-Butyl-3-(2-methylsulfanylethyl)-2-oxo-1,4,8-triazaspiro[4,5]decan-8-carboxylic acid 3,4-dichlorobenzylamide] |  |  |  | 70 | 37 |  | 42
23 | C=CCN1C(=O)C(C(C)C)NC12CCN(C(=O)Nc1ccc(OC(F)(F)F)cc1)CC2 (stereo not shown) [Example 220, 1-Allyl-3-isopropyl-2-oxo-1,4,8-triazaspiro[4,5]decan-8-carboxylic acid (4-trifluoromethoxy-benzol)amide] |  |  | 39 | 44 |  |  | 39
24 | CSCCC1NC2(CCN(C(=O)Nc3ccccc3)CC2)N(Cc2ccccc2C#N)C1=O (stereo not shown) [Example 224, 1-(2-Cyanobenzyl)-3-(2-methylsulfanylethyl)-2-oxo-1,4,8-triazaspiro[4,5]decan-8-carboxylic acid benzolamide] |  |  | 37 | 30 |  |  | 38
25 | CCOC(=O)CN1C(=O)C(Cc2ccccc2)NC12CCN(C(=O)NCc1ccc(Cl)c(Cl)c1)CC2 (stereo not shown) [Example 225, Ethyl[3-benzyl-8-(3,4-dichlorobenzylcarbamoyl)-2-oxo-1,4,8-triazaspiro[4,5]dec-1-yl]-acetate] |  |  |  | 77 | 43 |  | 33
26 | COc1cccc(NC(=O)N2CCC3(CC2)NC(CCSC)C(=O)N3Cc2cccc(C#N)c2)c1 (stereo not shown) [Example 236, 1-(3-Cyanobenzyl)-3-(2-methylsulfanylethyl)-2-oxo-1,4,8-triazaspiro[4,5]decan-8-carboxylic acid (3-methoxy-benzol)amide] |  |  | 32 | 42 |  |  | 34
27 | CSCCC1NC2(CCN(C(=O)Nc3cccc(C#N)c3)CC2)N(Cc2ccc(F)cc2)C1=O (stereo not shown) [Example 244, 1-(4-Fluorobenzyl)-3-(2-methylsulfanylethyl)-2-oxo-1,4,8-triazaspiro[4,5]decan-8-carboxylic acid (3-cyanobenzol)amide] |  |  | 52 | 47 |  |  | 32
28 | CS(=O)(=O)N1CCC2(CC1)NC(Cc1ccccc1)C(=O)N2Cc1ccccc1 (stereo not shown) [Example 246, 1,3-Dibenzyl-8-methansulfonyl-1,4,8-triazaspiro[4,5]decan-2-one] |  |  |  |  |  | 50 | 
